The source made the active and inactive calls. No cut-off for these calls is given here.
What was measured:
[1] = Cytotoxicity against HUVEC cells assessed as inhibition of cell growth incubated for 48 hrs by MTT assay; format: toxicity, cell-based; details: human
MDA-MB-231 [2] = experiment: Induction of telomere dysfunction in human MDA-MB-231 cells assessed as telomer length shortening effect at 0.2 uM measured after 10 days by qRT-PCR analysis; format: functional, cell-based; details: time 10.0 day
[3] = Upregulation of IL-1A gene expression in human MDA-MB-231 cells assessed as fold change at 1 uM measured after 48 hrs by RNA-seq analysis relative to control; format: functional
[4] = Upregulation of SGK1 gene expression in human MDA-MB-231 cells assessed as fold change at 1 uM measured after 48 hrs by RNA-seq analysis relative to control; format: functional
[5] = Upregulation of TGFBR2 gene expression in human MDA-MB-231 cells assessed as fold change at 1 uM measured after 48 hrs by RNA-seq analysis relative to control; format: functional
MDA-MB-231 [6] = experiment: Induction of ferroptosis in human MDA-MB-231 cells assessed as increase in ROS production measured after 48 hrs by Hoechst 33342 staining based confocal microscopic analysis; format: functional, cell-based; details: dose 0-1.5 µM
[7] = Toxicity in female Balb/c nude mouse xenografted with human MDA-MB-231 cells assessed as change in WBC count at 2 to 5 mg/kg, iv administered via tail vein every 2 days for 16 days; format: organism-based; details: in vivo, 384 h, dose 2-5 mg/kg, time 16 day
[8] = biological target: Telomerase reverse transcriptase (Homo sapiens) (UniProt O14746); experiment: Inhibition of telomerase activity in human MDA-MB-231 cells at >=1 uM incubated for 30 mins by SYBR Gold staining based TRAP assay; format: cell-based
Sequence of Telomerase reverse transcriptase (Homo sapiens) (O14746 whole entry): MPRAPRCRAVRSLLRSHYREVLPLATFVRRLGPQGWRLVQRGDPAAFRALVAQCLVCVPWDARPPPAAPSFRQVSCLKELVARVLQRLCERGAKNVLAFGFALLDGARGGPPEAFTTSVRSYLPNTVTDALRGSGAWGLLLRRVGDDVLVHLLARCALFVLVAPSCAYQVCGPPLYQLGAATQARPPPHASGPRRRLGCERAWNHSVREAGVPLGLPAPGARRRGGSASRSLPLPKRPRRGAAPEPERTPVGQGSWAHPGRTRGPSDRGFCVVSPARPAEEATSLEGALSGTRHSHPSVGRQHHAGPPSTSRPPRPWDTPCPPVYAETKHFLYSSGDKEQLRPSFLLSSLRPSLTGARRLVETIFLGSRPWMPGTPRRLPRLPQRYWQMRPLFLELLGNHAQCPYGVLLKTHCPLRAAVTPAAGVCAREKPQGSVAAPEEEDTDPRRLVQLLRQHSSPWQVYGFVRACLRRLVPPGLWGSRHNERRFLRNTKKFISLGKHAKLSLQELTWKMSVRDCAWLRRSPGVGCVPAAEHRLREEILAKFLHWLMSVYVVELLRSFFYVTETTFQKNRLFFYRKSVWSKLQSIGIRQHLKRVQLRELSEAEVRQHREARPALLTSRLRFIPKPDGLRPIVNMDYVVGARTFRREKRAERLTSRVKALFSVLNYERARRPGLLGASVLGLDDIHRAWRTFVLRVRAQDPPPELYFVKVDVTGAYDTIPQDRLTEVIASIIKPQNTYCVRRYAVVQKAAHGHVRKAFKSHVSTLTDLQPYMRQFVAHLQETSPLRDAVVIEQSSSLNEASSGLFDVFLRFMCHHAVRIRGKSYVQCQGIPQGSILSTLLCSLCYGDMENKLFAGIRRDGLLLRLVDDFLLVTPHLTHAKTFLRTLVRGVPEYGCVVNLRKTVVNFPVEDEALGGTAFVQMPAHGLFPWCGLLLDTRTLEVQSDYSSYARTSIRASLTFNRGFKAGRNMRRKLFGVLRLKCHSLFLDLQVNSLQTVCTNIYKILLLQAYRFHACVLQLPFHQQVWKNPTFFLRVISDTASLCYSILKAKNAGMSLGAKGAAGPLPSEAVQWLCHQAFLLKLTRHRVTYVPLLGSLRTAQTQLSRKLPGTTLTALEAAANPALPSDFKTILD

MDA-MB-231 [9] = experiment: Disruption of energy metabolism in human MDA-MB-231 cells assessed as reduction in cellular energy production by measuring reduction in oxygen consumption rate at 1.5 uM measured after 2 hrs by Seahorse XF24 analyzer; format: functional, cell-based
[10] = Toxicity in female Balb/c nude mouse xenografted with human MDA-MB-231 cells assessed as signs of ulcer at 2 to 5 mg/kg, iv administered via tail vein every 2 days for 16 days; format: organism-based; details: in vivo, 384 h, dose 2-5 mg/kg, time 16 day
Quadruplex DNA [11] = experiment: Binding affinity to c-MYC Pu27 G4 DNA (unknown origin) assessed as change in gibbs free energy at 400 uM by ITC analysis; format: nucleic-acid assay
[12] = Toxicity in female Balb/c nude mouse xenografted with human MDA-MB-231 cells assessed as change in hemoglobin concentration at 2 to 5 mg/kg, iv administered via tail vein every 2 days for 16 days; format: organism-based; details: in vivo, 384 h, dose 2-5 mg/kg, time 16 day
Quadruplex DNA [13] = experiment: Binding affinity to CKIT-2 G4 DNA (unknown origin) assessed as change in gibbs free energy at 400 uM by ITC analysis; format: nucleic-acid assay
[14] = Upregulation of KLF2 gene expression in human MDA-MB-231 cells assessed as fold change at 1 uM measured after 48 hrs by RNA-seq analysis relative to control; format: functional
Quadruplex DNA [15] = experiment: Binding affinity to hTERT G4 DNA assessed as thermal stability by measuring change in melting temperature at 400 uM […]; format: nucleic-acid assay; details: Homo sapiens
[16] = Selectivity ratio of binding affinity to human TERT G4 DNA to binding affinity to VEGF G4 DNA (unknown origin)
[17] = Toxicity in female Balb/c nude mouse xenografted with human MDA-MB-231 cells assessed as change in platelet count at 2 to 5 mg/kg, iv administered via tail vein every 2 days for 16 days; format: organism-based; details: in vivo, 384 h, dose 2-5 mg/kg, time 16 day
MDA-MB-231 [18] = experiment: Activation of apoptosis in human MDA-MB-231 cells assessed as upregulation of BAX protein expression measured after 48 hrs by Western blot analysis; format: functional, cell-based; details: dose 0-1.5 µM
[19] = Toxicity in female Balb/c nude mouse xenografted with human MDA-MB-231 cells assessed as change in mean corpuscular hemoglobin at 2 to 5 mg/kg, iv administered via tail vein every 2 days for 16 days; format: organism-based; details: in vivo, 384 h, dose 2-5 mg/kg, time 16 day
MDA-MB-231 [20] = experiment: Cytotoxicity against human MDA-MB-231 cells without hTERT overexpression assessed as inhibition of cell growth measured after 48 hrs by MTT assay; format: functional, cell-based; details: MDA-MB-231, 48 h
Quadruplex DNA [21] = experiment: Binding affinity to RET G4 DNA (unknown origin) assessed as thermal stability by measuring change in melting temperature at 400 uM […]; format: nucleic-acid assay
Homo sapiens = species: Homo sapiens; experiment: Binding affinity to antisense i-hTERT DNA assessed as change in gibbs free energy at 400 uM by ITC analysis
[22] = Upregulation of PLK1 gene expression in human MDA-MB-231 cells assessed as fold change at 1 uM measured after 48 hrs by RNA-seq analysis relative to control; format: functional
MDA-MB-231 [23] = experiment: Inhibition of TRF2 protein expression in human MDA-MB-231 cells measured after 48 hrs by Western blot analysis; format: functional, cell-based; details: dose 0-1.5 µM
[24] = Toxicity in female Balb/c nude mouse xenografted with human MDA-MB-231 cells assessed as change in mean corpuscular hemoglobin concentration at 2 to 5 mg/kg, iv administered via tail vein every 2 days for 16 days; format: organism-based; details: in vivo, 384 h, dose 2-5 mg/kg, time 16 day
[25] = Upregulation of FTH1 gene expression in human MDA-MB-231 cells assessed as fold change at 1 uM measured after 48 hrs by RNA-seq analysis relative to control; format: functional
[26] = Upregulation of CCNB2 gene expression in human MDA-MB-231 cells assessed as fold change at 1 uM measured after 48 hrs by RNA-seq analysis relative to control; format: functional
[27] = Selectivity ratio of binding affinity to human TERT G4 DNA to binding affinity to Bcl-2 G4 DNA (unknown origin)
MDA-MB-231 [28] = experiment: Induction of mitochondrial phagocytosis in human MDA-MB-231 cells assessed as increase in autophagic vesicle formation measured after 48 hrs by MitoTracker Deep Red FM staining based live-cell confocal microscopic analysis; format: functional; details: dose 0-1.5 µM
[29] = Toxicity in female Balb/c nude mouse xenografted with human MDA-MB-231 cells assessed as reduction in body weight at 2 to 5 mg/kg, iv administered via tail vein every 2 days for 16 days; format: organism-based; details: in vivo, 384 h, dose 2-5 mg/kg, time 16 day
[30] = Selectivity ratio of binding affinity to human TERT G4 DNA to binding affinity to Pu27 G4 DNA (unknown origin)
[31] = Upregulation of ZFP36L1 gene expression in human MDA-MB-231 cells assessed as fold change at 1 uM measured after 48 hrs by RNA-seq analysis relative to control; format: functional
DNA = experiment: Binding affinity to Ds26 duplex DNA (unknown origin) assessed as dissociation constant by ITC analysis; format: nucleic-acid assay
[32] = Toxicity in female Balb/c nude mouse xenografted with human MDA-MB-231 cells assessed as change in uric acid level at 2 to 5 mg/kg, iv administered via tail vein every 2 days for 16 days; format: organism-based; details: in vivo, 384 h, dose 2-5 mg/kg, time 16 day
MDA-MB-231 [33] = experiment: Induction of autophagy in human MDA-MB-231 cells assessed as upregulation of LC3-II protein expression at 0 to 1.5 uM measured after 48 hrs by Western blot analysis; format: functional, cell-based; details: dose 0-1.5 µM
MDA-MB-231 [34] = experiment: Cytotoxicity against human MDA-MB-231 cells transfected with hTERT-pcDNA3.1(+)-C-eBFP overexpressing hTERT assessed as inhibition of cell growth measured after 48 hrs by MTT assay; format: functional, cell-based; details: MDA-MB-231, 48 h

inhibition [8]: Active | deltaG (Quadruplex DNA [11]): -6.59 kcal/mol | deltaG (Quadruplex DNA [13]): -7.05 kcal/mol | ΔTm (Quadruplex DNA [15]): 11.7 °C | Selectivity ratio [16]: 2 | ΔTm (Quadruplex DNA [21]): 0.96 °C | deltaG (Homo sapiens): -7.58 kcal/mol | Selectivity ratio [27]: 2 | Selectivity ratio [30]: 2 | Kd (DNA): 18.9 µM
Structure (SMILES): C[n+]1c(/C=C/c2c[nH]c3ccccc23)cc(/C=C2\Sc3ccccc3N2CCCN2CCC(C(F)(F)F)CC2)c2ccccc21.[I-]
IC50 at 48 h [1]: 8.7 µM | Activity (MDA-MB-231 [2]): Active | fold change (FC) [3]: >2 | fold change (FC) [4]: >2 | fold change (FC) [5]: >2 | Activity (MDA-MB-231 [6]): Dose-Dependent Effect | Activity [7]: Non-Toxic | Activity (MDA-MB-231 [9]): Active | Activity [10]: Non-Toxic | Activity [12]: Non-Toxic | fold change (FC) [14]: >2 | Activity [17]: Non-Toxic | Activity (MDA-MB-231 [18]): Dose-Dependent Effect | Activity [19]: Non-Toxic | IC50 (MDA-MB-231 [20]): 1.2 µM | fold change (FC) [22]: >2 | inhibition (MDA-MB-231 [23]): Dose-Dependent Effect | Activity [24]: Non-Toxic | fold change (FC) [25]: >2 | fold change (FC) [26]: >2 | Activity (MDA-MB-231 [28]): Active | Activity [29]: Non-Toxic | fold change (FC) [31]: >2 | Activity [32]: Non-Toxic | Activity (MDA-MB-231 [33]): Active | IC50 (MDA-MB-231 [34]): 3.3 µM

From ChEMBL document CHEMBL5550185, “Targeting hTERT Promoter G-Quadruplex DNA Structures with Small-Molecule Ligand to Downregulate hTERT Expression for Triple-Negative Breast Cancer Therapy” (J Med Chem, 2024)
